Test results published in publication PMC6859854 (2019).

Test system: 75 nadA (RNA, riboswitch) GGGUUUGGUUGCAACAUCCCCGUGGGUUGGGUGAUGGCUCCAAUCAGAGCCGGAACAGCGAAUCCACUGCAACCGUGA
Assay: in-line probing
Conditions: 20 mM Mg2+, 100 mM K+; 50 mM Tris-HCl pH 8.3, 23 °C, 42–72 h; apparent

KD: ~ 90 μM
Compound: NC(=O)c1ccc[n+]([C@@H]2O[C@H](COP(=O)(O)OP(=O)(O)OC[C@H]3O[C@@H](n4cnc5c(N)ncnc54)[C@H](O)[C@@H]3O)[C@@H](O)[C@H]2O)c1
